Source: patent US20110034380A1, “COMBINATION OF A SELECTIVE PPAR-GAMMA MODULATOR AND AN INCRETIN FOR THE TREATMENT OF DIABETES AND OBESITY” (priority 2009, published 2011)

Assay: Stability of polymorph Form II of the besylate salt
Format: physicochemical
Details: exemplary Form II polymorph, solid form
Description: In some embodiments, Form II of the besylate salt of compound 101 (2,4-Dichloro-N-[3,5-dichloro-4-(quinolin-3-yloxy)-phenyl]-benzenesulfonamide benzenesulfonate salt) is used. […] In some embodiments, the Form II polymorph can have a melting point between about 230 and 240° C. […] For example, particular Form II polymorphs can have major X-ray powder diffraction pattern peaks at 15, 19, 20.5, 23.5, 24.5, 25, 26.5, 29.5 and 30.5° 2θ using Cu Kα radiation. In certain embodiments, the Form II polymorph can have major X-ray powder diffraction pattern peaks at one, two, three, four, five, six, seven or eight of the X-ray powder diffraction pattern peaks at 15, 19, 20.5, 23.5, 24.5, 25, 26.5, 29.5 and 30.5° 2θ using Cu Kα radiation. In certain embodiments, the Form II polymorph of the invention can have both a melting point between about 230 and 240° C. and major X-ray powder diffraction pattern peaks at one, two, three, four, five, six, seven or eight of the X-ray powder diffraction pattern peaks at 15, 19, 20.5, 23.5, 24.5, 25, 26.5, 29.5 and 30.5° 2θ using Cu Kα radiation. In further embodiments, the Form II polymorph can have major infrared absorbance peaks at one, two, three, four, or five of the infrared absorbance peaks at 1573, 1469, 1459, 912, and 859 cm^−1.

- stability of the polymorph: surprising stability
Compound: O=S(=O)(Nc1cc(Cl)c(Oc2cnc3ccccc3c2)c(Cl)c1)c1ccc(Cl)cc1Cl.O=S(=O)(O)c1ccccc1 [2,4-Dichloro-N-[3,5-dichloro-4-(quinolin-3-yloxy)-phenyl]-benzenesulfonamide benzenesulfonate salt]
